Values quoted from earlier work in patent publication US20260125371A1, “METHOD FOR INHIBITING CLOSTRIDIOIDES DIFFICILE SPORE GERMINATION” (UNIVERSITY OF NOTRE DAME DU LAC, priority 2022, published 2026).
Where two headings read alike, the source gives them in different places.

How the values were obtained:
Gram-negative bacteria = details: organisms of Table 2; data from earlier publication; cited from earlier work
C. difficile strains = details: cited from earlier work
E. aerogenes ATCC35029 = details: cited from earlier work
E. faecium = details: cited from earlier work
E. coli ATCC25922 = details: cited from earlier work
E. faecalis = details: cited from earlier work
P. aeruginosa ATCC27853 = details: cited from earlier work
S. aureus = details: cited from earlier work
[1] = tested on: B. licheniformis ATCC 12759; details: cited from earlier work
[2] = tested on: S. haemolyticus ATCC 29970; details: cited from earlier work
K. pneumoniae ATCC700603 = details: cited from earlier work
A. baumanii ATCC17961 = details: cited from earlier work
B. cereus ATCC 13061 = details: cited from earlier work
[3] = C. difficile strains of Table 4

FC(F)(F)c1ccc(Oc2ccc(-c3noc(-c4ccc5[nH]ccc5c4)n3)cc2)cc1 [Compound 1]
no activity: activity against Gram-negative organisms (Gram-negative bacteria)
2 µg/mL: MIC (C. difficile strains; C. difficile BAA-1803) | MIC (C. difficile strains; C. difficile NR49292) | MIC (C. difficile strains; C. difficile NR49302) | MIC (C. difficile strains; C. difficile NR49310) | MIC (C. difficile strains; C. difficile NR49318) | MIC (C. difficile strains; strain BAA-1803) | MIC (C. difficile strains; strain BAA-1804) | MIC (C. difficile strains; strain BAA-1812) | MIC (C. difficile strains; strain NR49292) | MIC (C. difficile strains; strain NR49302) | MIC (C. difficile strains; strain NR49310) | MIC (C. difficile strains; strain NR49318) | MIC (C. difficile strains; strain NR-32895) | MIC (C. difficile strains; strain NR-32896) | MIC (C. difficile strains; strain RMA27081) | MIC (E. faecium; E. faecium 106 (Van R)) | MIC (E. faecium; E. faecium NCTC 7171) | MIC against MRSA (S. aureus; MRSA) | MIC (S. aureus; S. aureus NRS100 (COL)) | MIC (S. aureus; S. aureus NRS119) | MIC (S. aureus; S. aureus NRS120) | MIC (S. aureus; S. aureus VRS1) | MIC (S. aureus; S. aureus VRS2)
>128 µg/mL: MIC (E. aerogenes ATCC35029) | MIC (E. coli ATCC25922) | MIC (P. aeruginosa ATCC27853) | MIC (K. pneumoniae ATCC700603) | MIC (A. baumanii ATCC17961)
4 µg/mL: IMIC50 (101 strains) (C. difficile strains; 101 C. difficile strains) | MIC (C. difficile strains; C. difficile 23828, resistant to FDX) | MIC (C. difficile strains; C. difficile 24531, resistant to VAN) | MIC (C. difficile strains; C. difficile 26675, resistant to MTZ) | MIC (C. difficile strains; C. difficile BAA-1870) | MIC (C. difficile strains; C. difficile NR49305) | MIC50 (C. difficile strains; [3]) | MIC (C. difficile strains; strain BAA-1801) | MIC (C. difficile strains; strain BAA-1814) | MIC (C. difficile strains; strain BAA-1870) | MIC (C. difficile strains; strain HM-746) | MIC (C. difficile strains; strain NR49305) | MIC (C. difficile strains; strain NR-13427) | MIC (C. difficile strains; strain NR-13431) | MIC (C. difficile strains; strain NR-13433) | MIC (C. difficile strains; strain NR-13434) | MIC (C. difficile strains; strain NR-13435) | MIC (C. difficile strains; strain NR-13438) | MIC (C. difficile strains; strain NR-13553) | MIC (C. difficile strains; strain NR-32882) | MIC (C. difficile strains; strain NR-32883) | MIC (C. difficile strains; strain NR-32884) | MIC (C. difficile strains; strain NR-32886) | MIC (C. difficile strains; strain NR-32889) | MIC (C. difficile strains; strain NR-32890) | MIC (C. difficile strains; strain NR-32892) | MIC (C. difficile strains; strain NR-32904) | MIC (C. difficile strains; strain NR-49277) | MIC (C. difficile strains; strain NR-49278) | MIC (C. difficile strains; strain NR-49279) | MIC (C. difficile strains; strain NR-49281) | MIC (C. difficile strains; strain NR-49285) | MIC (C. difficile strains; strain NR-49286) | MIC (C. difficile strains; strain NR-49287) | MIC (C. difficile strains; strain NR-49288) | MIC (C. difficile strains; strain NR-49293) | MIC (C. difficile strains; strain NR-49295) | MIC (C. difficile strains; strain NR-49296) | MIC (C. difficile strains; strain NR-49297) | MIC (C. difficile strains; strain NR-49298) | MIC (C. difficile strains; strain NR-49299) | MIC (C. difficile strains; strain NR-49300) | MIC (C. difficile strains; strain NR-49301) | MIC (C. difficile strains; strain NR-49303) | MIC (C. difficile strains; strain NR-49304) | MIC (C. difficile strains; strain NR-49306) | MIC (C. difficile strains; strain NR-49307) | MIC (C. difficile strains; strain NR-49309) | MIC (C. difficile strains; strain NR-49311) | MIC (C. difficile strains; strain NR-49313) | MIC (C. difficile strains; strain NR-49314) | MIC (C. difficile strains; strain NR-49315) | MIC (C. difficile strains; strain NR-49316) | MIC (C. difficile strains; strain NR-49320) | MIC (C. difficile strains; strain NR-49326) | MIC (C. difficile strains; strain NR-49327) | MIC (C. difficile strains; strain NR-49328) | MIC (C. difficile strains; strain NR-49329) | MIC (C. difficile strains; strain RMA23691) | MIC (C. difficile strains; strain RMA23828) | MIC (C. difficile strains; strain RMA24531) | MIC (C. difficile strains; strain RMA24923) | MIC (C. difficile strains; strain RMA26675) | MIC (C. difficile strains; strain RMA27173) | MIC (E. faecalis; E. faecalis 99 (Van R)) | MIC (E. faecalis; E. faecalis 201 (Van S)) | MIC (S. aureus; S. aureus ATCC 27660) | MIC (S. aureus; S. aureus ATCC 29213)
16 µg/mL: MIC (B. cereus ATCC 13061)
1 µg/mL: MIC (C. difficile strains; C. difficile NR49294) | MIC (C. difficile strains; strain ATCC43598) | MIC (C. difficile strains; strain NR49294) | MIC (E. faecium; E. faecium 119-39A (Van S))
8 µg/mL: MIC90 (101 strains) (C. difficile strains; 101 C. difficile strains) | MIC90 (C. difficile strains; [3]) | MIC (C. difficile strains; strain HM-88) | MIC (C. difficile strains; strain HM-89) | MIC (C. difficile strains; strain HM-745) | MIC (C. difficile strains; strain HM-747) | MIC (C. difficile strains; strain NR-13428) | MIC (C. difficile strains; strain NR-13429) | MIC (C. difficile strains; strain NR-13430) | MIC (C. difficile strains; strain NR-13436) | MIC (C. difficile strains; strain NR-13437) | MIC (C. difficile strains; strain NR-32885) | MIC (C. difficile strains; strain NR-32887) | MIC (C. difficile strains; strain NR-32888) | MIC (C. difficile strains; strain NR-32891) | MIC (C. difficile strains; strain NR-32897) | MIC (C. difficile strains; strain NR-32900) | MIC (C. difficile strains; strain NR-32903) | MIC (C. difficile strains; strain NR-49280) | MIC (C. difficile strains; strain NR-49282) | MIC (C. difficile strains; strain NR-49283) | MIC (C. difficile strains; strain NR-49284) | MIC (C. difficile strains; strain NR-49289) | MIC (C. difficile strains; strain NR-49290) | MIC (C. difficile strains; strain NR-49291) | MIC (C. difficile strains; strain NR-49308) | MIC (C. difficile strains; strain NR-49312) | MIC (C. difficile strains; strain NR-49317) | MIC (C. difficile strains; strain NR-49319) | MIC (C. difficile strains; strain NR-49321) | MIC (C. difficile strains; strain NR-49323) | MIC (C. difficile strains; strain NR-49324) | MIC (C. difficile strains; strain NR-49325) | MIC (E. faecalis; E. faecalis ATCC 29212) | MIC [1] | MIC [2]
